Experimental data as given in US10662187B2, “Bruton's tyrosine kinase inhibitors” (Zibo Biopolar Changsheng Pharmaceutical Co. Ltd., priority 2016, dated 2020).
Where two headings read alike, the source gives them in different places.

Tests used:
[1] = target: T1, BTK (Homo sapiens (Human), UniProt Q06187); test: Btk kinase assay (HTRF); type: biochemical; details: [ATP]=80 μM, BTK=3.4 nM
Method in brief: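 HTRF read-out with enzyme, inhibitor, ATP and 1 μM peptide substrate in 50 mM Hepes pH 7.0, 0.02% NaN3, 0.01% BSA, 0.1 mM orthovanadate. Activity measured across compound concentrations against no-inhibitor controls, with no-enzyme wells as baseline.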
Target sequence in this assay (Q06187 whole entry, species assumed): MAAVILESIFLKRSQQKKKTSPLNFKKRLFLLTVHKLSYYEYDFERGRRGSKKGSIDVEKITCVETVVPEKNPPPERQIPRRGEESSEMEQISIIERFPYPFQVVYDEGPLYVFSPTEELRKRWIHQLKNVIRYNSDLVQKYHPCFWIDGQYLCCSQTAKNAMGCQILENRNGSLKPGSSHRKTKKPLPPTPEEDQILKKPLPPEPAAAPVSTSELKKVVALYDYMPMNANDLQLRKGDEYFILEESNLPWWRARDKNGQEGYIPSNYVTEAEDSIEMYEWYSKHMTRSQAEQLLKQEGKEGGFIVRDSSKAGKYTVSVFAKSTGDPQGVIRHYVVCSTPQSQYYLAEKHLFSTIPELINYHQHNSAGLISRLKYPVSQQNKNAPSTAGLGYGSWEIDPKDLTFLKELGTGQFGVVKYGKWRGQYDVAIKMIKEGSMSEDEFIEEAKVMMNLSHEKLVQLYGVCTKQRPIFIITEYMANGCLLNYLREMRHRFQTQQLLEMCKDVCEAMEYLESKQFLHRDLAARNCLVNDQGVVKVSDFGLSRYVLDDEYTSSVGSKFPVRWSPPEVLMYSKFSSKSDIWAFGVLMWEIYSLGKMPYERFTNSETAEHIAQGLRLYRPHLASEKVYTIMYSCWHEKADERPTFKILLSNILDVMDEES

[2] = target: LCK (Homo sapiens (Human), UniProt P06239); test: LCK kinase assay (HTRF); type: biochemical; details: [ATP]=20 μM, LCK=0.2 nM
Method: (§1) Btk Kinase Assay and Other Kinases Assay Btk kinase activity was determined using a homogenous time resolved fluorescence (HTRF) methodology. Measurements were performed in a reaction volume of 15 μL using 384-well assay plates. Kinase enzyme, inhibitor, ATP and 1 μM peptide substrate were incubated in a reaction buffer compose of Hepes 50 mM (pH7.0), NaN3 0.02%, BSA 0.01%, Orthocanadate 0.1 mM. After one hour, the kinase reaction was quenched by the addition of […] antibody and XL-665 in 1×Detection buffer containing 60 mM EDTA (Cisbio), and the mixture was allowed to incubate for one hour. The HTRF signal was measured on a multimode plate reader (EnVision® Multilabel Reader, Perkin Elmer) with an excitation wavelength (λEx) of 330 nm and detection wavelengths (λEm) of 615 and 665 nm. Activity was determined by the ratio of the fluorescence at 665 nm to that at 615 nm. For each compound, enzyme activity as measured at various concentrations of compound, Negative control reactions were performed in the absence of inhibitor in two replicates and eight no enzyme controls were used to determine baseline fluorescence levels. I[…] were obtained according to the equation: […] For LYN assay, [ATP]=20 μM, LYN=0.12 nM. For LCK assay, [ATP]=20 μM, LCK=0.2 nM. For BLK assay, [ATP]=20 μM, BLK=0.6 nM.

[3] = target: LYN (Homo sapiens (Human), UniProt P07948); test: LYN kinase assay (HTRF); type: biochemical; details: [ATP]=20 μM, LYN=0.12 nM
Method: as §1

[4] = target: BLK (Homo sapiens (Human), UniProt P51451); test: BLK kinase assay (HTRF); type: biochemical; details: [ATP]=20 μM, BLK=0.6 nM
Method: as §1

[5] = target: EGFR (Homo sapiens (Human), UniProt P00533); test: EGFR kinase assay; type: biochemical
Method: Btk Kinase Assay and Other Kinases Assay Btk kinase activity was determined using a homogenous time resolved fluorescence (HTRF) methodology. Measurements were performed in a reaction volume of 15 μL using 384-well assay plates. Kinase enzyme, inhibitor, ATP and 1 μM peptide substrate were incubated in a reaction buffer compose of Hepes 50 mM (pH7.0), NaN3 0.02%, BSA 0.01%, Orthocanadate 0.1 mM. After one hour, the kinase reaction was quenched by the addition of […] antibody and XL-665 in 1×Detection buffer containing 60 mM EDTA (Cisbio), and the mixture was allowed to incubate for one hour. The HTRF signal was measured on a multimode plate reader (EnVision® Multilabel Reader, Perkin Elmer) with an excitation wavelength (λEx) of 330 nm and detection wavelengths (λEm) of 615 and 665 nm. Activity was determined by the ratio of the fluorescence at 665 nm to that at 615 nm. For each compound, enzyme activity as measured at various concentrations of compound, Negative control reactions were performed in the absence of inhibitor in two replicates and eight no enzyme controls were used to determine baseline fluorescence levels. I[…] were obtained according to the equation: […]

[6] = target: Btk (Mus musculus (Mouse), UniProt P35991); test: Btk occupancy in vivo (PBMCs or splenocytes, PCI-33380 labeling); details: after 4 hours, Babc/L mice
Method: For analysis of Btk occupancy in Babc/L mice following oral dosing of compounds after 4 hours. Isolating peripheral blood mononuclear cells (PBMCs) with mouse peripheral blood separation kit (Hao Yang Biological Manufacture CO., LTD, Tianjin) were collected from Babc/L mice (1 ml blood from two mice). Spleens were processed to splenocytes followed by 5 min incubation in red blood cell lysing buffer (from mouse peripheral blood separation kit). PBMCs or splenocytes were then PCI-33380-labeled and lysates analyzed by fluorescent gel scanning as described in cellular assays.

[7] = target: T1, BTK; test: Btk occupancy in cellular assays (PCI-33380 labeling, Jeko-1 cells); type: cell-based; details: 1.5 h pre-incubation with compound, PCI-33380 5 μM 1 h
Method: Btk Occupancy in Cellular Assays
For PCI-33380 labeling of human B cells, 10^6 Jeko-1 cells were pre-incubated with compound for 1.5 h before labeling. Then cells were treated with PCI-33380 at 5 μM for 1 h. Washed, lysed in Ripa buffer containing sample reducing agent, and analyzed by SDS/PAGE and fluorescent gel scanning using a Typhoon scanner 9500 (GE Healthcare) (Ex, 532 nm; Em, 555 nm). The gel was then blotted and total Btk levels detected by standard Western blot with Btk antibody (CST).
Target sequence in this assay (Q06187 whole entry): as the sequence (Q06187 whole entry, species assumed) above

Btk, sequence (P35991 whole entry): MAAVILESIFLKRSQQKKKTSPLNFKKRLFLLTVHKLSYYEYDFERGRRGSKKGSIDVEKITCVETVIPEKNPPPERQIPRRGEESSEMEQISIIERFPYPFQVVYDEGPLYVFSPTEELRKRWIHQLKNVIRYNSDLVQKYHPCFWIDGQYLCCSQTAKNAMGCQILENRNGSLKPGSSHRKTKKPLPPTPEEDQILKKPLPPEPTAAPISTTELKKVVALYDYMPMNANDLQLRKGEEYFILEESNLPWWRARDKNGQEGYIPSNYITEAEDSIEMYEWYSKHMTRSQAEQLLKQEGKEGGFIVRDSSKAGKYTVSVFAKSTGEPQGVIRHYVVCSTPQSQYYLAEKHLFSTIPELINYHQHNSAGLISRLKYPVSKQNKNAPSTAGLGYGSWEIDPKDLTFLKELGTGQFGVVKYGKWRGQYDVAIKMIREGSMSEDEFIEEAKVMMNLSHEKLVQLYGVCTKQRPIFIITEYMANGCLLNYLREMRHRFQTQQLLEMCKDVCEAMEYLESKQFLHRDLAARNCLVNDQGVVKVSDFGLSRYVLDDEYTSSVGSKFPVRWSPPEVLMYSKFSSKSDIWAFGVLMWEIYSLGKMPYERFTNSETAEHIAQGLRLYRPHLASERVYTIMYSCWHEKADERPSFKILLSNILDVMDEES
LCK, sequence (P06239 whole entry, species assumed): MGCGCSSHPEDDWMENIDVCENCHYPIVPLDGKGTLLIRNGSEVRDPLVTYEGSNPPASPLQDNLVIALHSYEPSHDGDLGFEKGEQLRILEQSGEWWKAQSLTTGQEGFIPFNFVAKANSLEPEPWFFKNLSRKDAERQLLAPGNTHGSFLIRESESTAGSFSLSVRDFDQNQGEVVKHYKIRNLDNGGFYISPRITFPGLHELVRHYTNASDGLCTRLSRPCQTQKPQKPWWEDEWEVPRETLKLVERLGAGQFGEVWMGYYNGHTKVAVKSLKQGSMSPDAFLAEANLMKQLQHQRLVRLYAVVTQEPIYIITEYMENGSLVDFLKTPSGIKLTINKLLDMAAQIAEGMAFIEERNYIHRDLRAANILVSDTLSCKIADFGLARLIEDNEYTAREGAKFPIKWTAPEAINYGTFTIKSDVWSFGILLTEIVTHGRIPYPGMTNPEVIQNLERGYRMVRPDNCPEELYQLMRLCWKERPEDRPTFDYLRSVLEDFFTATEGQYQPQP
BLK, sequence (P51451 whole entry, species assumed): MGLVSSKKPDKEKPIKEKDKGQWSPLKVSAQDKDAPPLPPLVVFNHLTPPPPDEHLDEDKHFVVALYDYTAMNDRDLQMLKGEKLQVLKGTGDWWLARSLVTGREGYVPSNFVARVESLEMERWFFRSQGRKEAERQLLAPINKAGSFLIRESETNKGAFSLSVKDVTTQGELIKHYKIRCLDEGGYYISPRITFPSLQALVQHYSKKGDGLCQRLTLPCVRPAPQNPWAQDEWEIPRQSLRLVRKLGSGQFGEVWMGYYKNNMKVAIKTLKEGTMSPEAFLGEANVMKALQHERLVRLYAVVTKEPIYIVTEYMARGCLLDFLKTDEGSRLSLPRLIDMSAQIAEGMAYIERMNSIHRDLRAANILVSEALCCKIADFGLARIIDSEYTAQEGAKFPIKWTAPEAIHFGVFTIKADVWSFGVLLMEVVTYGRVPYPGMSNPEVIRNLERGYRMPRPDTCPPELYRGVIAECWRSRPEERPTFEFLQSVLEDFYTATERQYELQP
EGFR, sequence (P00533 25-1210, species assumed): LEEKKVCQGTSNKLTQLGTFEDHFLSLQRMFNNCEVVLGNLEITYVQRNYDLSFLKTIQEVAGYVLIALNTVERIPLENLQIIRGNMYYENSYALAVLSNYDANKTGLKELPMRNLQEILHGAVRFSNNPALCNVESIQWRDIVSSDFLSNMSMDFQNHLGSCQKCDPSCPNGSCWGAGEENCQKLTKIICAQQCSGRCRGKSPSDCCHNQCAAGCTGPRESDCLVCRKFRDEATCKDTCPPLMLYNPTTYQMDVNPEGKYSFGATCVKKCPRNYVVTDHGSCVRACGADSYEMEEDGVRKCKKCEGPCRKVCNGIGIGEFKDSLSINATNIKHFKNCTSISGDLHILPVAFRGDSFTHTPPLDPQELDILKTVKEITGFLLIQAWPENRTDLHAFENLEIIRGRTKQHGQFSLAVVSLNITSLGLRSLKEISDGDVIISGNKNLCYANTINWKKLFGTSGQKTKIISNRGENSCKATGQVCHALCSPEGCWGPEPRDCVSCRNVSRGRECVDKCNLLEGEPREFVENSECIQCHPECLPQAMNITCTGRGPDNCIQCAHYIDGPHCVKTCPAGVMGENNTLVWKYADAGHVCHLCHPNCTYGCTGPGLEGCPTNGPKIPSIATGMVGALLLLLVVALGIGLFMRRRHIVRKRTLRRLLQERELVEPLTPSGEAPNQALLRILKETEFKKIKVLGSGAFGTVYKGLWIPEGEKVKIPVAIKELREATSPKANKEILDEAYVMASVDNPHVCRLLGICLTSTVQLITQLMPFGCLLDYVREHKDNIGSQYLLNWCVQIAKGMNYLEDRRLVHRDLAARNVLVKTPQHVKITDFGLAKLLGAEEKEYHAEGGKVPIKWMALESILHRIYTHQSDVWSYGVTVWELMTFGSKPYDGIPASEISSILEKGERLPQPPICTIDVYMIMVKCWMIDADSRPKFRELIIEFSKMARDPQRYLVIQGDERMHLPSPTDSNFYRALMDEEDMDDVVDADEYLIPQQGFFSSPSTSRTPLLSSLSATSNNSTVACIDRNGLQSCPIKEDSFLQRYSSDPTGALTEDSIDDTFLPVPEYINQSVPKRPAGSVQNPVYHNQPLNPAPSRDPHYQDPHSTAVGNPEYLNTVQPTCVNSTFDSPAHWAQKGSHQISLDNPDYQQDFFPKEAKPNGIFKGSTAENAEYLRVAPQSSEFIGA
LYN, sequence (P07948 whole entry, species assumed): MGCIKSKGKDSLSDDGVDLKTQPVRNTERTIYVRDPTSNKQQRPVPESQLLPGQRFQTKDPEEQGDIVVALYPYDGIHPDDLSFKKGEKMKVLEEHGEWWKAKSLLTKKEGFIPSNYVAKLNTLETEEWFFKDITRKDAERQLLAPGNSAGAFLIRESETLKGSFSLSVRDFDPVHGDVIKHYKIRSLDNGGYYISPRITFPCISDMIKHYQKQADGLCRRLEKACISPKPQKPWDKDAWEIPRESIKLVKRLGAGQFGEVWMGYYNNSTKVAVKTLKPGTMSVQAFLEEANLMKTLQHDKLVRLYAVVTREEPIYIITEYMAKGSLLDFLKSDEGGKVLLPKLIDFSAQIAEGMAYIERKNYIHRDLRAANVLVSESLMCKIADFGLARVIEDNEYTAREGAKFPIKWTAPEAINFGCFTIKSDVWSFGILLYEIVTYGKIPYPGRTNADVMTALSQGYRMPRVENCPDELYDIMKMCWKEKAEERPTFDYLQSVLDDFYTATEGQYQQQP

Row | Btk occupancy in vivo ([6]; 10 mg/kg single oral dose) | concentration sufficient to fully occupy the active site of Btk [7] [nM] | Btk occupancy in vivo ([6]; 5 mg/kg single oral dose) | Structure (SMILES) | IC50 ([1]; read-out: BTK IC50) [nM] | IC50 ([1]; read-out: BTK Inhibition) [nM] | IC50 [2] [nM] | IC50 [3] [nM] | IC50 [4] [nM] | IC50 [5] [nM]
1 |  |  |  | C=CC(=O)N1CC[C@@H](n2nc(-c3ccc(Oc4ccccc4)cc3)c3cnccc32)C1 [Compound 1, (R)-1-(3-(3-(4-phenoxyphenyl)-1H-pyrazolo[4,3-c]pyridin-1-yl)pyrrolidin-1-yl)prop-2-en-1-one] | < 10 | < 10 | 1000 to 10000 | ≤ 10000 | < 10 | 100 to 1000
2 |  |  |  | C=CC(=O)N1CCC[C@@H](n2nc(-c3ccc(Oc4cccc(OC)c4F)cc3)c3cncc(OC)c32)C1 [Compound 6, (R)-1-(3-(3-(4-(2-fluoro-3-methoxyphenoxy)phenyl)-7-methoxy-1H-pyrazolo[4,3-c]pyridin-1-yl)piperidin-1-yl)prop-2-en-1-one] | < 10 | < 10 | 1000 to 10000 | 1000 to 10000 | 10 to 100 | 100 to 1000
3 | full occupancy | 100 |  | C=CC(=O)N1CCC[C@@H](n2nc(-c3ccc(Oc4cccc(OC)c4F)cc3)c3cnccc32)C1 [Compound 71, (R)-1-(3-(3-(4-(2-fluoro-3-methoxyphenoxy)phenyl)-1H-pyrazolo[4,3-c]pyridin-1-yl)piperidin-1-yl)prop-2-en-1-one] |  | < 10 |  |  |  | 
4 |  | 100 | full occupancy | C=CC(=O)N1CCC[C@@H](n2nc(-c3ccc(Oc4cccc(OC)c4F)cc3)c3cncc(OCC)c32)C1 [Compound 73, (R)-1-(3-(7-ethoxy-3-(4-(2-fluoro-3-methoxyphenoxy)phenyl)-1H-pyrazolo[4,3-c]pyridin-1-yl)piperidin-1-yl)prop-2-en-1-one] |  | < 10 |  |  |  | 
